Experimental data as given in paper PMC9410094 (Marine Drugs, 2022).
In brackets after ≈: the same amount, converted by molar mass. Positions of bridges follow the written chain, without caps; N, C: chain ends. Residues, ends and D or L forms follow the SMILES beside them.

Legend:
Gram-positive bacteria = type: cell-based; settings: 24 h
Procedure: (§1) The antimicrobial activity of the peptides was determined via the method of two-fold serial dilutions in sterile 96-well flat-bottom polystyrene microplates (Eppendorf #0030730011) in Mueller–Hinton broth (MHB, Sigma, Kawasaki, Kanagawa, Japan) supplemented with 0.9% NaCl. Bacterial cultures were grown in MHB at 37 °C until the culture reached an optical density OD600 of 1.0 and diluted with the broth so that to reach a final cell concentration of 10^6 CFU/mL. Then 50 μL of the test culture were added to 50 μL of aqueous solutions of the peptides, previously diluted in 0.1% sterilized bovine serum albumin (BSA) to reduce non-specific binding of the peptides to the surface of the plates. Next, the plate was incubated for 24 h at 37 °C and 950 rpm on the plate thermoshaker (Biosan). The values of the minimum inhibitory concentrations (MIC) were determined as the minimum concentration of the peptide, at which there is no culture growth. The results were expressed as the median values of three independent experiments performed in triplicate.

E. coli 3421/E19 = test: Neutropenic mice peritonitis model; type: in vivo, BALB/c mice; settings: for Efficacy in the neutropenic peritonitis model (in words): single i.v. dose of 10 mg/kg, E. coli 3421/E19
Procedure: Immune-deficient mice were inoculated intraperitoneally (i.p.) with bacterial suspension. Antimicrobial agent was administered 1 h post-infection, and colony counts in blood and peritoneal fluid (PF) were determined 5 h later.
(A) The mice peritonitis model. […] Horizontal bars indicate means ± SD.
Food and water were provided ad libitum.
CFU counts were determined from blood and peritoneal fluid (PF) 5 h after treatment. The mice were euthanized by CO2 asphyxiation and blood was collected by axillary cut down. A total of 2 mL sterile saline was injected i.p. and the abdomen gently massaged before it was opened, fluid sampled with a pipette, serially diluted and placed on Endo agar supplemented with 20 µg/mL of tetracycline for CFU identification.

E. coli ML-35p = settings: for Fold reduction of antibacterial activity in the presence of serum: MHB + 0.9% NaCl with 25% FBS versus without
Procedure: Initially, antimicrobial activity of abarenicin and UuBRI-21 was evaluated against the reference strain of E. coli (ML-35p) under various conditions (Table 1). Minimal inhibitory concentrations (MICs) were determined via two-fold serial dilutions in 96-well polystyrene plates. Serial dilutions were made in 0.1% bovine serum albumin (BSA) to minimize the absorption of peptides on the surface of plate wells. Mueller–Hinton broth (MHB) supplemented with 0.9% NaCl was used as the standardized medium.
as §1, with “Bacterial” for “The antimicrobial activity of the peptides was determined via the method of two-fold serial dilutions in sterile 96-well flat-bottom polystyrene microplates (Eppendorf #0030730011) in Mueller–Hinton broth (MHB, Sigma, Kawasaki, Kanagawa, Japan) supplemented with 0.9% NaCl. Bacterial”

[1] = RP-HPLC retention time as measure of hydrophobicity; type: physicochemical; settings: chromatographic, semipreparative RP-HPLC, C18 column, linear gradient 5 to 80% (v/v) acetonitrile in water with 0.1% TFA within 50 minutes; used as measure of hydrophobicity
Procedure: Table S1. Characteristics of the recombinant AMPs.
1 Mean Kyte–Doolittle hydrophobicity index (GRAVY) was calculated using the Expasy ProtParam tool. The maximum and minimum values of this index are +4.5 and -4.5 for poly-Ile and poly-Arg sequences, respectively. 2 Retention times were measured using semipreparative reversed-phase high-performance liquid chromatography (RP - HPLC) on a C18 column with a linear gradient from 5 to 80% ( v/v) acetonitrile in water containing 0.1% trifluoroacetic […]
acid (TFA) within 50 minutes. […]

E. coli ATCC 25922 = test: Mice septicemia model, survival; settings: BALB/c mice, n = 8, E. coli ATCC 25922 i.p. with 2.5% mucin
Procedure: Ciprofloxacin (the single dose of 10 mg/kg) and saline were used as the positive and negative controls, respectively. […] Mice were controlled once daily for their health status during 7 post-infection days.
Then, we examined an efficacy of AMPs in the mice septicemia model using 8 animals in a group (Figure 10B).
Experiments were performed with female 8–10-week-old BALB/c mice (22–24 g, “Andreevka” laboratory animal nursery FMBA, Russia). […] All animal experiments were performed at the State Research Center for Applied Microbiology and Biotechnology (SRCAMB) in Obolensk, Russia. The animals were housed in groups of 5 in polycarbonate cages. Food and water were provided ad libitum.
A total of 4 groups with 8 animals were used. The first group received ciprofloxacin (Sigma, Kawasaki, Kanagawa, Japan) administered i.p. once (1 h post-infection) at a dose of 10 mg/kg. The second group received saline (as a vehicle control) administered i.p. once (1 h post-infection). […] Survival was monitored for 7 days. After that survived animals were euthanized by CO2 asphyxiation.

human red blood cells = type: cell-based
Procedure: Figure 4 (A) Hemolytic effect on human red blood cells after 2 h incubation (hemoglobin release assay). (B) Cytotoxicity toward transformed human embryonic kidney cells after 20 h incubation (MTT-assay). The positive control used was 0.1% Triton X-100 and sterile PBS as a negative control. Melittin was used as an additional positive control. The data are presented as the mean ± SD of three independent experiments.
The hemolytic activity of compounds was performed using human red blood cells (hRBS) of healthy donor. Fresh blood was centrifuged to separate the erythrocyte fraction for 15 min at 500 g and washed three times with cold phosphate-buffered saline (PBS) (pH 7.4), after which an 8% (v/v) suspension of erythrocytes in PBS was prepared. Then, 50 µL of erythrocyte suspension was added to the test peptides, previously were dissolved in 50 µL of 0.1% BSA. The plate was incubated for 1.5 h at 37 °C and 950 rpm on the plate thermoshaker. After incubation, the plates were centrifuged for 15 min at 1000 g to settle intact erythrocytes. Next, aliquots of the supernatant were transferred to another plate to measure the amount of hemoglobin release by the absorbance of the solution at 405 nm. As “zero lysis” we used the supernatant obtained after centrifugation of erythrocytes incubated in a PBS solution without the addition of a peptide. As “100% lysis”, we used the supernatant obtained after centrifugation of erythrocytes incubated in a 0.1% Triton X-100, causing their complete lysis. The assays were conducted three times. The quantitative data were presented as an average means with standard deviations. Hemolysis(%)=OD405(compound)−OD405(zerolysis)/OD405(100%lysis)−OD405(zerolysis)×100%

Gram-negative bacteria = test: Geometric mean of MICs, Gram-negative panel; type: cell-based
Procedure: as §1

[2] = test system: P. aeruginosa PAO1 mature biofilms; test: Effect on mature biofilms, viability by MTT; settings: P. aeruginosa PAO1 pre-formed biofilm, 2-h exposure
Procedure: Biofilm viability was measured by tetrazolium salt reduction (right panel). Values are presented as means ± the standard deviation (SD) of three independent experiments.
The effect of peptides on pre-formed biofilms was evaluated as follows. Biofilms were grown on a 96-well plate at 32 °C for 24 h and stirred at 120 rpm to ensure biofilm formation primarily on the wall of the wells. […] Bacterial survival in the biofilms after 2-h exposure was evaluated via a MTT assay after incubation with a tested peptide. Then, wells were rinsed with sterile water, treated with an MTT solution (Sigma, Kawasaki, Kanagawa, Japan) in PBS, and incubated for 4 h at 37 °C. Next, the medium was removed. The resulting formazan crystals were dissolved in a mixture of EtOH and DMSO (1:1) for 10 min. The optical density of the solution was measured at 570 nm. Bacterial survival was calculated as percent relative to samples without antimicrobial agent. All data were obtained from at least three independent experiments in 3 repetitions.

Structure (SMILES) | Minimum inhibitory concentration (MIC): Gram-positive Geometric mean (Gram-positive bacteria) [µM] | Efficacy in the neutropenic peritonitis model (in words) (E. coli 3421/E19) | Fold reduction of antibacterial activity in the presence of serum (E. coli ML-35p) [fold] | RP-HPLC Retention Time [1] [min] | Hemolytic activity (in words) (human red blood cells) | also measured
CC(C)[C@@H]1NC(=O)[C@H](Cc2ccc(O)cc2)NC(=O)[C@H](Cc2c[nH]c3ccccc23)NC(=O)[C@@H](NC(=O)[C@H](Cc2ccccc2)NC(=O)CN)CSSC[C@@H](C(=O)N[C@@H](CC(N)=O)C(=O)O)NC(=O)[C@H](CCCNC(=N)N)NC(=O)[C@H](CCCNC(=N)N)NC(=O)[C@H](Cc2ccc(O)cc2)NC(=O)[C@@H]2CSSC[C@H](NC1=O)C(=O)N[C@@H](C)C(=O)N[C@@H](CCCNC(=N)N)C(=O)N[C@@H](CCCNC(=N)N)C(=O)N[C@@H](CC(N)=O)C(=O)NCC(=O)N[C@@H](C)C(=O)N[C@@H](CCCNC(=N)N)C(=O)N[C@@H](C(C)C)C(=O)N2 [AA139, reference compound] (H-GFCWYVCARRNGARVCYRRCN-OH; disulfide 3-20, 7-16) | 4 (≈ 10.2 µg/mL) | effective | 4 | 25.67 |  | Bacterial burden in mice blood (in words) (E. coli 3421/E19; neutropenic BALB/c mice, n = 5, i.p. infection, single i.v. dose 1 h post-infection (AMPs 10 mg/kg, polymyxin B 5 mg/kg), CFU 5 h after treatment): complete reduction; Reduction of the CFU level in peritoneal fluid (PF) (E. coli 3421/E19; neutropenic BALB/c mice, n = 5, single i.v. dose (AMPs 10 mg/kg, polymyxin B 5 mg/kg), CFU 5 h after treatment): ~ 5 log; Minimum Inhibitory Concentration, MHB + 0.9% NaCl + 25% FBS (E. coli ML-35p; Table 1, medium with 25% fetal bovine serum): 1 µM; Minimum Inhibitory Concentration, MHB + 0.9% NaCl (E. coli ML-35p; Table 1, without FBS, dilutions in 0.1% BSA): 0.25 µM; Therapeutic efficacy (survival) after one-week experiment (E. coli ATCC 25922; peptide i.p. 10 mg/kg at 1 and 4 h post-infection, 7 days): 87.5%
CC[C@H](C)[C@@H]1NC(=O)[C@H](CCCNC(=N)N)NC(=O)[C@H](C(C)C)NC(=O)CNC(=O)[C@H](CC(N)=O)NC(=O)[C@H](CCCNC(=N)N)NC(=O)[C@H](CCCNC(=N)N)NC(=O)[C@H](Cc2ccc(O)cc2)NC(=O)[C@@H]2CSSC[C@H](NC1=O)C(=O)N[C@@H](Cc1ccc(O)cc1)C(=O)N[C@@H](CCCNC(=N)N)C(=O)N[C@@H](CCCNC(=N)N)C(=O)N[C@H](C(=O)N[C@@H](CC(N)=O)C(=O)O)CSSC[C@H](NC(=O)[C@H](Cc1ccc(O)cc1)NC(=O)CN)C(=O)N[C@@H](Cc1ccccc1)C(=O)N[C@@H]([C@@H](C)O)C(=O)N[C@@H](C)C(=O)N2 [Ap4] (H-GYCFTACYRRNGVRICYRRCN-OH; disulfide 3-20, 7-16) | 0.63 (≈ 1.62 µg/mL) |  |  | 24.79 | ability to lyse hRBCs is stronger | Minimum inhibitory concentration (MIC): Gram-negative Geometric mean (Gram-negative bacteria; geometric mean (GM) of MICs against the 14 Gram-negative strains of Figure 2): 0.13 µM (≈ 0.334 µg/mL)
CC[C@H](C)[C@@H]1NC(=O)[C@H](CCCNC(=N)N)NC(=O)[C@H](C)NC(=O)CNC(=O)[C@H](CC(N)=O)NC(=O)[C@H](CCCNC(=N)N)NC(=O)[C@H](CCCNC(=N)N)NC(=O)[C@H](C)NC(=O)[C@@H]2CSSC[C@H](NC1=O)C(=O)N[C@@H](Cc1ccc(O)cc1)C(=O)N[C@@H](CCCNC(=N)N)C(=O)N[C@@H](CCCNC(=N)N)C(=O)N[C@H](C(=O)N[C@@H](CC(N)=O)C(=O)O)CSSC[C@H](NC(=O)[C@H](Cc1ccc(O)cc1)NC(=O)CN)C(=O)N[C@@H](Cc1ccccc1)C(=O)N[C@@H]([C@@H](C)O)C(=O)N[C@@H](C)C(=O)N2 [Ap11] (H-GYCFTACARRNGARICYRRCN-OH; disulfide 3-20, 7-16) | 4 (≈ 9.8 µg/mL) | ineffective | 4 | 25.17 |  | Fold reduction in the antimicrobial activity compared to Ap4 (Gram-negative bacteria; Gram-negative GM values): at least 5 fold; Residual viability of bacteria in mature biofilm ([2]; 16 µM): about 20%
CC[C@H](C)[C@@H]1NC(=O)[C@H](CCCNC(=N)N)NC(=O)[C@H](C(C)C)NC(=O)CNC(=O)[C@H](CC(N)=O)NC(=O)[C@H](CCCNC(=N)N)NC(=O)[C@H](Cc2ccc(O)cc2)NC(=O)[C@H](Cc2ccc(O)cc2)NC(=O)[C@@H]2CSSC[C@H](NC1=O)C(=O)N[C@@H](C(C)C)C(=O)N[C@@H](CCCNC(=N)N)C(=O)N[C@@H](Cc1ccc(O)cc1)C(=O)N[C@H](C(=O)N[C@@H](CC(N)=O)C(=O)O)CSSC[C@H](NC(=O)[C@H](Cc1ccccc1)NC(=O)CN)C(=O)NCC(=O)N[C@@H](Cc1ccc(O)cc1)C(=O)N[C@@H](C)C(=O)N2 [UuBRI-21] (H-GFCGYACYYRNGVRICVRYCN-OH; disulfide 3-20, 7-16) | 2 (≈ 4.95 µg/mL) | lack of effectivity | 16 | 28.48 | moderate hemolytic activity | 
O=C(O)c1cn(C2CC2)c2cc(N3CCNCC3)c(F)cc2c1=O [ciprofloxacin, reference compound] |  |  |  |  |  | Effect on bacteria inside mature biofilm (in words) [2]: not able to impair bacteria inside biofilm; Survival (in words) (E. coli ATCC 25922; single i.p. dose of 10 mg/kg 1 h post-infection): survival of all mice
